Counter-ions that a name gives are not always drawn.
Columns and labels:
mouse chondrocytes [1] = test: Tm stress: relative number of viable cells (WST8) in mouse chondrocytes cultured in the presence of tunicamycin; format: cell-based; conditions: chondrocytes differentiated from ATDCS cells; tunicamycin 0.2 μg/mL; KUS121 50 or 100 μM; 40 hours; FIG. 1
Procedure: (§1) Cells of mouse teratocarcinoma-derived cell line ATDCS (J Cell Biol. 1996 April; 133(2):457-68) were cultured in DMEM/Ham's F12 medium containing 5% FBS. The cells were passaged to a 12-well plate at the density of 3×10^4 cells/well and cultured in the presence of insulin (10 μg/ml) (start of differentiation induction, Day 0). The cells were differentiated into chondrocytes by differentiation induction for 14 to 21 days. The cells were used in the following experiments.
On Day 15 of the differentiation induction, tunicamycin (0.2 μg/mL), which induces ER stress, and KUS121 (50 or 100 μM) were added to the medium and the chondrocytes were cultured for 40 hours. Relative number of viable cells was determined by using 2-(2-methoxy-4-nitrophenyl)-3-(4-nitrophenyl)-5-(2,4-disulfophenyl)-2H-tetrazolium monosodium salt (WST8).

mouse chondrocytes [2] = test: Glucose starvation stress: relative number of viable cells (WST8) in mouse chondrocytes; format: cell-based; conditions: chondrocytes differentiated from ATDCS cells; medium containing no glucose; 100 μM KUS121; five days; FIG. 2
Procedure: as §1
The chondrocytes were cultured in the medium containing no glucose and containing KUS 121 (50 or 100 μM) for five days from Day 17 of the differentiation induction. Relative number of viable cells was determined by using WST8.

mouse chondrocytes [3] = test: TNFα stress: relative number of viable cells (WST8) in mouse chondrocytes; format: cell-based; conditions: chondrocytes differentiated from ATDCS cells; TNFα 10 ng/mL; KUS121 50 or 100 μM; 48 hours; FIG. 3
Procedure: as §1
On Day 15 of the differentiation induction, TNFα (10 ng/mL), which induces apoptosis, and KUS121 (50 or 100 μM) were added to the medium and the chondrocytes were cultured for 48 hours. Relative number of viable cells was determined by using WST8.

[4] = test system: Bip and CHOP in mouse chondrocytes; test: Western blotting for Bip and CHOP in mouse chondrocytes cultured in the presence of tunicamycin; format: cell-based; conditions: tunicamycin 3 μg/mL; KUS121 50 or 100 μM; 6 hours; FIG. 4
Procedure: as §1
On Day 15 of the differentiation induction, tunicamycin (3 μg/mL) and KUS121 (50 or 100 μM) were added to the medium and the chondrocytes were cultured for 6 hours. The cells were subjected to Western blotting. As primary antibodies, Bip (Cell Signaling #3177S), CHOP (Proteintech #15204-1-AP), and actin (Sigma #A5441) were used. Expression of Bip and CHOP was suppressed in the presence of KUS121. Bip is an ER stress marker and CHOP induces apoptosis related to ER stress.

[5] = test system: cCasp3 in mouse chondrocytes; test: Western blotting for cCasp3 in mouse chondrocytes cultured in the presence of TNFα; format: cell-based; conditions: TNFα 20 ng/mL; KUS121 50 or 100 μM; 48 hours; cCasp3 antibody; FIG. 5
Procedure: as §1
On Day 15 of the differentiation induction, TNFα (20 ng/mL) and KUS121 (50 or 100 μM) were added to the medium and the chondrocytes were cultured for 48 hours. The cells were subjected to Western blotting. As primary antibodies, cCasp3 (Cell Signaling #9661S) and actin (Sigma #A5441) were used. Expression of Casp3, an apoptosis marker, was suppressed in the presence of KUS121.

human chondrocytes = test: Viable cells (CCK-8) in monolayer human chondrocytes cultured in the presence of tunicamycin; format: cell-based; conditions: tunicamycin 3 μg/mL and KUS121 100 μM for 24 hours, then 0.5% FBS medium for 48 hours; FIG. 6
Procedure: Chondrocytes were collected from a knee joint removed from a patient in knee replacement surgery. The cells were cultured in DMEM-F12 (Gibco, 11330-032) on a 24-well plate to 70-80% confluence and cultured in the medium without FBS for further 24 hours. The cells were then cultured in the medium containing tunicamycin (3 μg/mL) and KUS121 (100 μM) for 24 hours. The medium was replaced with the medium containing 0.5% FBS and the cells were cultured for 48 hours. For counting viable cells, CCK-8 (DOJINDO LABORATORIES) was added, which is a kit for cell counting comprising WST8 as a chromogenic substrate. The cells were incubated for 15 minutes at 37° C. and the absorbances (450 nm, 570 nm) were determined. Viable cells were decreased by adding tunicamycin, but not decreased in the presence of KUS121.

[6] = test system: caspase 3/7 activity of human chondrocytes; test: Caspase 3/7 activity (Casp3/7 Glo assay) of human chondrocytes cultured in the presence of tunicamycin; format: cell-based; conditions: tunicamycin 3 μg/mL; KUS121 100 μM; 6 hours; FIG. 7
Procedure: Human chondrocytes were cultured to 70-80% confluence. Tunicamycin (3 μg/mL) and KUS121 (100 μM) were added to the medium and the cells were cultured for further 6 hours. Casp3/7 Glo assay (Promega) was used in accordance with the manufacture's instructions and caspase 3/7 activity was determined by luminometer. The caspase activity was increased by adding tunicamycin, but not increased in the presence of KUS121.

[7] = test system: Bip, ATF4, and CHOP in human chondrocytes; test: Western blotting for Bip, ATF4 and CHOP in human chondrocytes cultured in the presence of tunicamycin; format: cell-based; conditions: tunicamycin 3 μg/mL; KUS121 12.5, 25, 50, or 100 μM; 8 hours; in a dose-dependent manner; FIG. 8
Procedure: Human chondrocytes were cultured to 70-80% confluence. Tunicamycin (3 μg/mL) and KUS121 (12.5, 25, 50, or 100 μM) were added to the medium and the cells were cultured for further 8 hours. Proteins were collected from the cells and subjected to Western blotting. As primary antibodies, Bip (Cell Signaling Technology, #3177), ATF4 (Cell Signaling Technology, #11815), CHOP (Cell Signaling Technology, #2895), and β-actin (Cell Signaling Technology, #5125) were used. In the absence of tunicamycin expressions of ATF4 and CHOP were observed, but the expression levels were quite low. In the presence of tunicamycin KUS121 suppressed expression of Bip, ATF4, and CHOP in a dose-dependent manner.

[8] = test system: p-JNK in human chondrocytes; test: Western blotting for p-JNK and JNK in human chondrocytes cultured in the presence of tunicamycin; format: cell-based; conditions: tunicamycin 3 μg/mL; KUS121 12.5, 25, 50, or 100 μM; 8 hours; in a dose-dependent manner; FIG. 9
Procedure: Human chondrocytes were cultured to 70-80% confluence. Tunicamycin (3 μg/mL) and KUS121 (12.5, 25, 50, or 100 μM) were added to the medium and the cells were cultured for further 8 hours. Proteins were collected from the cells and subjected to Western blotting. As primary antibodies, p-JNK (Cell Signaling Technology, #4668), JNK (Cell Signaling Technology, #9252), and β-actin (Cell Signaling Technology, #5125) were used. KUS121 suppressed expression of phosphorylated JNK (p-JNK), a MAP kinase, in a dose-dependent manner.

[9] = test system: MMP13 and MMP1 in human chondrocytes; test: Gene expression of MMP13 and MMP1 by real-time PCR in human chondrocytes cultured in the presence of IL-1β; format: cell-based; conditions: IL-1β 2 ng/mL; KUS121 12.5, 25, 50, or 100 μM; 24 hours; in a dose-dependent manner; FIG. 10
Procedure: Human chondrocytes were cultured on a 24-well plate to 70-80% confluence and cultured in the medium without FBS for 24 hours. The cells were then cultured in the medium containing IL-1β (2 ng/mL) and KUS121 (12.5, 25, 50, or 100 μM) for 24 hours. Messenger RNAs were extracted from the cells and cDNAs were generated by reverse transcription. Gene expression levels of MMP13 and MMP1 were determined by real-time PCR. KUS121 suppressed expression of MMP13 and MMP1, which are collagenases, in a dose-dependent manner.

[10] = test system: human femorotibial joint cartilage; test: Organ culture of human cartilage: number of viable cells (CCK-8); format: cell-based; conditions: cartilage of posterolateral femoral condyle; KUS121 100 μM; 72 hours; FIG. 11
Procedure: From a knee joint removed from a patient in knee replacement surgery cartilage of femorotibial joint (posterolateral femoral condyle) was collected by using a biopsy punch having a diameter of 7 mm. The cartilage was cultured in the medium without FBS for 48 hours and then in the medium containing KUS121 (100 μM) for 72 hours. Number of viable cells was determined by washing the cartilage with PBS, adding CCK-8, incubating the cartilage for 30 minutes at 37° C., and determining the absorbances (450 nm, 570 nm). Number of viable cells was larger in the presence of KUS121.

[11] = test system: Knee osteoarthritis model rats; test: Knee osteoarthritis model (monoiodoacetate, MIA) in rats; format: in vivo; conditions: rat, 50 mg/Kg/day intraperitoneally, two weeks after MIA administration
Procedure: It is known that intraarticularly administered monoiodoacetate (MIA) damages chondrocytes and suppresses secretin of collagen and proteoglycan to induce osteoarthritis (M. Udo et al., Osteoarthritis Cartilage. 2016, 24:1284-91). Knee osteoarthritis model rats were generated by administering 0.5 mg of monoiodoacetate (MIA) in 25 μl of saline solution into knee joint cavities of both hind limbs of healthy rats. Prior to the MIA administration, 50 mg/Kg/day of KUS121 was administered intraperitoneally for four days. After the MIA administration, the same amount of KUS121 was administered intraperitoneally five days per week.
Two weeks after the MIA administration the knee cartilages of the rats were resected, fixed with 10% neutral buffered formalin for about one week, demineralized with Morse's solution (for two weeks) or EDTA (for one month), cleaved along the medial collateral ligament, and embedded in paraffin with the cut surface facing up. Sections were cut every 100-200 μm with a thickness of 3-6 μm. The sections were stained with Safranin-O, which stains chondrocytes, and observed with a fluorescence microscope (KEYENCE BZ9000). […] In addition, three blinded evaluators evaluated ORSI scores for medial femur, lateral femur, medial tibia, and lateral tibia on the basis of the results of the Safranin-O staining. […]

[12] = test system: traumatic cartilage damage model rats; test: Traumatic cartilage damage model (periodic compression to knee joints) in rats; format: in vivo; conditions: rat, KUS121 20 mg/ml, 100 μl intraarticularly; for Modified Mankin score of posterolateral femoral condyle: versus control group, FIG. 15
Source text: It is known that a mouse that has been given periodic compression to a knee joint can be used as a model of post-traumatic cartilage damage (Wu P, Sandell L, et al. Arthritis Rheumatol. 2014; 66(5):1256-65). In a similar manner, a rat post-traumatic cartilage damage model was generated. Specifically, a knee of a hind limb was deeply flexed and fixed on the table of Autograph (Shimadzu Corporation) with the patella facing down. A vertical load of 5 N was applied downward from the heel, then 240 loads of 20 N at the maximum were applied with 5-second intervals. […] This model was used for the following experiments.
Knee joints of 12-week old male Wister rats (five rats per group) were given periodic compression by the method described above. KUS121 (20 mg/ml) in 5% glucose solution (100 μl) was intraarticularly administered to rats in KUS 121 group immediately before the operation and at Day 1, 2, and 3 after the operation. To rats in the control group 5% glucose solution (100 μl) was administered. The rats were sacrificed two or four weeks after the operation. Damages of posterolateral femoral condyle were histologically evaluated.

## Cc1cc(F)ccc1-c1ccc(/N=N/c2cc(S(=O)(=O)O)c3ccccc3c2N)cn1 [KUS121, 4-amino-3-[6-(4-fluoro-2-methylphenyl)pyridine-3-ylazo]naphthalene-1-sulfonic acid sodium salt]
Mouse chondrocytes [1]
  Cell death (relative number of viable cells, WST8): significantly suppressed
Mouse chondrocytes [2]
  Cell death (relative number of viable cells, WST8): significantly suppressed
Mouse chondrocytes [3]
  Cell death (relative number of viable cells, WST8): significantly suppressed
[4]
  Expression of Bip (ER stress marker), Western blotting: suppressed
  Expression of CHOP, Western blotting: suppressed
[5]
  Expression of Casp3, an apoptosis marker, Western blotting: suppressed
Human chondrocytes
  Viable cells (CCK-8): not decreased
[6]
  Caspase 3/7 activity: not increased
[7]
  Expression of ATF4, Western blotting: suppressed
  Expression of Bip, Western blotting: suppressed
  Expression of CHOP, Western blotting: suppressed
[8]
  Expression of phosphorylated JNK (p-JNK), Western blotting: suppressed
[9]
  Gene expression of MMP1, real-time PCR: suppressed
  Gene expression of MMP13, real-time PCR: suppressed
[10]
  Number of viable cells (CCK-8): larger
[11]; versus control group (PBS), FIG. 12, 13
  Safranin-O staining of knee cartilage sections (indicates chondrocytes): darker
[11]; versus control group, FIG. 14
  ORSI score (mean of medial femur, lateral femur, medial tibia, lateral tibia): lower
[12]; four weeks after the operation, FIG. 16
  Volume of cartilage damage in posterolateral femoral condyle: significantly reduced
[12]; four weeks after the operation, FIG. 17
  Number of chondrocytes in posterolateral femoral condyle: significantly higher
[12]; four weeks after the operation
  Modified Mankin score of posterolateral femoral condyle: no significant difference
[12]; two weeks after the operation
  Modified Mankin score of posterolateral femoral condyle: significantly lower

— patent publication US20220401461A1, “Pharmaceutical Composition for Protecting Cartilage” (Kyoto University, priority 2019, published 2022)
